# Biological target: GCN2 (Homo sapiens (Human), UniProt Q9P2K8)
# Assay: GCN2 Biochemical Assay (TR-FRET, GFP-eIF2S1 substrate phosphorylation)
# Details: read-out: IC50 (GCN2 Inhibitory Activity)
# In short: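 TR-FRET readout (Ex 340, Em 490/520 nm) after 2–3 h with Tb-labelled phospho-eIF2S1 antibody in stop mix, following a 70 min room-temperature kinase step. Reaction: in-house GCN2, GFP-eIF2S1, ATP, tRNA in Tris pH 7.5 (2× stocks 1.6 nM, 50 nM, 0.2 mM); compounds tested at 10 concentrations, with a phospho-substrate artifact counter-plate.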
# Chain of GCN2 (Q9P2K8 whole entry): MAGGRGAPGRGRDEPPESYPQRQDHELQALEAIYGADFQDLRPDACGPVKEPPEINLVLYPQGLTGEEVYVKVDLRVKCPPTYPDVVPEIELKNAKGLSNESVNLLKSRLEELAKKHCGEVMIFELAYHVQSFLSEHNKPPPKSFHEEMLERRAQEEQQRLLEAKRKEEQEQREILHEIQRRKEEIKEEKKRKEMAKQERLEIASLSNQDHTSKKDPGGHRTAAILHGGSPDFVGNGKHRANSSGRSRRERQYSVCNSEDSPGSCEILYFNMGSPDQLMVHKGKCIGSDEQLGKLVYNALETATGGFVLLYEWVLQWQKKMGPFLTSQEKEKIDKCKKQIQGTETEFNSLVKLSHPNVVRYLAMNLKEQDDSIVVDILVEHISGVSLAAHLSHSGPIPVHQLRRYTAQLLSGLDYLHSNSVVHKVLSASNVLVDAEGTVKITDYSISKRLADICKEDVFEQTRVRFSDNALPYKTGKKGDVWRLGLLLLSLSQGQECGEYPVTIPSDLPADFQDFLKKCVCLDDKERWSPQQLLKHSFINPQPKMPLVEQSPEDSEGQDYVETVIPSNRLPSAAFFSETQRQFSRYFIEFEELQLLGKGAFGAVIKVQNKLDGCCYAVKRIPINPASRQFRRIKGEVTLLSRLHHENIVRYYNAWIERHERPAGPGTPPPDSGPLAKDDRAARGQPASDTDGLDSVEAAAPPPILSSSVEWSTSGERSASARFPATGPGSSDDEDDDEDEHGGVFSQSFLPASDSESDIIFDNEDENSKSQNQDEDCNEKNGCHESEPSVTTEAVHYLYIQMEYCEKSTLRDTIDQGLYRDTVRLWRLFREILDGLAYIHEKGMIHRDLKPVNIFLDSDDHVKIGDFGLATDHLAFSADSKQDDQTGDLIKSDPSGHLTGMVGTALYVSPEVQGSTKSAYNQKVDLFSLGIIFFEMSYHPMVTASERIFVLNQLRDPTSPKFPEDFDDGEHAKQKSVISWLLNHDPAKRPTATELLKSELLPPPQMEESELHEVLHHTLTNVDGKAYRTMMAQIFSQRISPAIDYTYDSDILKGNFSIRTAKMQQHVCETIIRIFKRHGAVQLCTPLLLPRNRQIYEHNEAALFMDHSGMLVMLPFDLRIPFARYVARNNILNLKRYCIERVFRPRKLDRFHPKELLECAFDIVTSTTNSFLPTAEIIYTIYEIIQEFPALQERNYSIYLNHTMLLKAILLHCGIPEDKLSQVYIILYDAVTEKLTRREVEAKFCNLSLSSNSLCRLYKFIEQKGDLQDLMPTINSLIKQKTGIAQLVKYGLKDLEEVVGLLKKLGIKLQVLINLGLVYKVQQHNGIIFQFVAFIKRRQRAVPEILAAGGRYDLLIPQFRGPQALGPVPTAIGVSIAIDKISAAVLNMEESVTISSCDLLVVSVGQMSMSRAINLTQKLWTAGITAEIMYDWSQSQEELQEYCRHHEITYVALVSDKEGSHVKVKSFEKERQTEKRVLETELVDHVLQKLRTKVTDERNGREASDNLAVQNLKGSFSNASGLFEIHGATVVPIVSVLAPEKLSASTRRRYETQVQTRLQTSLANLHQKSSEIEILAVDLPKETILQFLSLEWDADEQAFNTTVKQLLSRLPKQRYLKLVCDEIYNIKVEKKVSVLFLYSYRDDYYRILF
row,SMILES,IC50 [µM]
1,"Cc1cnc(Nc2cc(C)n(C)n2)nc1-c1c[nH]c2c(N3Cc4c(ccnc4-c4cncc(F)c4)C3=O)cccc12 [Example 503, 2-(3-(2-((1,5-dimethyl-1H-pyrazol-3-yl)amino)-5-methylpyrimidin-4-yl)-1H-indol-7-yl)-4-(5-fluoropyridin-3-yl)-2,3-dihydro-1H-pyrrolo[3,4-c]pyridin-1-one]",< 0.01
2,"Cc1cnc(Nc2cc(C)n(C)n2)nc1-c1c[nH]c2c(N3Cc4c(ccnc4-c4ccnc(F)c4)C3=O)cccc12 [Example 504, 2-(3-(2-((1,5-dimethyl-1H-pyrazol-3-yl)amino)-5-methylpyrimidin-4-yl)-1H-indol-7-yl)-4-(2-fluoropyridin-4-yl)-2,3-dihydro-1H-pyrrolo[3,4-c]pyridin-1-one]",< 0.01
3,"Cc1cncc(-c2nccc3c2CN(c2cccc4c(-c5nc(Nc6cc(C)n(C)n6)ncc5C)c[nH]c24)C3=O)c1 [Example 505, 2-(3-(2-((1,5-dimethyl-1H-pyrazol-3-yl)amino)-5-methylpyrimidin-4-yl)-1H-indol-7-yl)-4-(5-methylpyridin-3-yl)-2,3-dihydro-1H-pyrrolo[3,4-c]pyridin-1-one]",< 0.01
4,"Cc1cnccc1-c1nccc2c1CN(c1cccc3c(-c4nc(Nc5cc(C)n(C)n5)ncc4C)c[nH]c13)C2=O [Example 506, 2-(3-(2-((1,5-dimethyl-1H-pyrazol-3-yl)amino)-5-methylpyrimidin-4-yl)-1H-indol-7-yl)-4-(3-methylpyridin-4-yl)-2,3-dihydro-1H-pyrrolo[3,4-c]pyridin-1-one]",< 0.01

# — patent US20240025884A1 (Dong-A ST Co., Ltd., priority 2022, published 2024)
